The subject of data set [1] is breast cancer cells (HBL100). Kind of data set: MTT cytotoxicity assay, breast cancer cells. It counts as cell-based. Also noted: key: —: Not active; =PT: Activity equivalent to Paclitaxel; <PT: Activity less than Paclitaxel. As to conditions: 24 to 96 hours, potency over paclitaxel. The method, then:
(§1) In vitro cytotoxic activity of novel paclitaxel derivatives was determined by performing the MTT cytotoxicity assay (Mosmann T., J Immunological Methods, 65:55; 1983). Briefly, the cultured tumor cells were separately seeded in a 96-well culture plate and co-incubated with paclitaxel or its derivatives dissolved in methanol, dimethyl formamide, dimethyl sulfoxide or isopropyl alcohol with relevant controls at 37° C. in a CO2 incubator. After 24 to 96 hours, the assay was terminated and percent cyotoxicities calculated.
(Tetrazolium assays rely on reduction of a dye to a coloured formazan, in cell work by metabolically active cells.)

A further data set relates to leukemia cells (MOLT-4). Put plainly: MTT cytotoxicity assay, leukemia cells. Also noted: key: —: Not active; =PT: Activity equivalent to Paclitaxel; <PT: Activity less than Paclitaxel. In kind it is cell-based. As to conditions: MOLT-4 leukemia cells, 24 to 96 hours, potency over paclitaxel. As for the experimental part: as §1
Data set [2] concerns cervical cancer cells (SiHa). Put plainly: MTT cytotoxicity assay, cervical cancer cells. It counts as cell-based. Also noted: key: —: Not active; =PT: Activity equivalent to Paclitaxel; <PT: Activity less than Paclitaxel. As to conditions: 24 to 96 hours, potency over paclitaxel. The method, then:
as §1

The subject of a further data set is lung cancer cells (L132). Put plainly: MTT cytotoxicity assay, lung cancer cells. In kind it is cell-based. Details: key: —: Not active; =PT: Activity equivalent to Paclitaxel; <PT: Activity less than Paclitaxel. As to conditions: 24 to 96 hours, potency over paclitaxel. As for the experimental part:
as §1

The test system of data set [3] is ovarian cancer cells (PA-1). Kind of data set: MTT cytotoxicity assay, ovarian cancer cells. Also noted: key: —: Not active; =PT: Activity equivalent to Paclitaxel; <PT: Activity less than Paclitaxel. As to conditions: PA-1 ovarian cancer cells, 24 to 96 hours, potency over paclitaxel. In kind it is cell-based. The method, then: as §1
The test system of another data set is mice. As to conditions: cited from earlier work.

The structures appear in SMILES notation.

As to `CC(=O)OC1C(=O)C2(C)C(O)CC3OCC3(OC(C)=O)C2C(OC(=O)c2ccccc2)C2(O)CC(OC(=O)C(OC(=O)CNC(=O)CNC(=O)OC(C)(C)C)C(NC(=O)c3ccccc3)c3ccccc3)C(C)=C1C2(C)C` (stereo not drawn) [AV-4S], the “Potency with respect to paclitaxel, HBL100” value (“Potency … HBL100” for short) in data set [1] was 3.3. Moreover, the “Potency with respect to paclitaxel, MOLT-4” value (from here on “Potency … MOLT-4”) in the data set with leukemia cells (MOLT-4) is 13.2. For the same molecule, in data set [2], the “Potency with respect to paclitaxel, SiHa” value is “—”. Also, in the data set with lung cancer cells (L132), the “Potency with respect to paclitaxel, L132” value is 56.3. Further, the “Potency with respect to paclitaxel, PA-1” value in data set [3] was determined as 9.5.
For the molecule `CC(=O)OC1C(=O)C2(C)C(O)CC3OCC3(OC(C)=O)C2C(OC(=O)c2ccccc2)C2(O)CC(OC(=O)C(OC(=O)CC(C)(C)C(=O)O)C(NC(=O)c3ccccc3)c3ccccc3)C(C)=C1C2(C)C` (stereo not drawn) [AV-82B], the “Potency … HBL100” value in data set [1] is above 170. Besides, the “Potency … MOLT-4” value in the data set on leukemia cells (MOLT-4) was “—”. Moreover, the “Potency with respect to paclitaxel, SiHa” value in data set [2] was above 25.0. Besides, the “Potency with respect to paclitaxel, L132” value with lung cancer cells (L132) was “—”. Also, in data set [3], the “Potency with respect to paclitaxel, PA-1” value is recorded as “—”.
As for `CC(=O)OC1C(=O)C2(C)C(O)CC3OCC3(OC(C)=O)C2C(OC(=O)c2ccccc2)C2(O)CC(OC(=O)C(OC(=O)c3cccc(C(F)(F)F)c3)C(NC(=O)c3ccccc3)c3ccccc3)C(C)=C1C2(C)C` (stereo not drawn) [AV-86B], in data set [1], the “Potency … HBL100” value is listed as “<PT”. For the same molecule, the “Potency … MOLT-4” value in the data set on leukemia cells (MOLT-4) is recorded as “—”. Further, the “Potency with respect to paclitaxel, SiHa” value in data set [2] came out at 2.5. The “Potency with respect to paclitaxel, PA-1” value in data set [3] was “—”.
`CC(=O)OC1C(=O)C2(C)C(O)CC3OCC3(OC(C)=O)C2C(OC(=O)c2ccccc2)C2(O)CC(OC(=O)C(OC(=O)c3ccc(F)cc3F)C(NC(=O)c3ccccc3)c3ccccc3)C(C)=C1C2(C)C` (stereo not drawn) [AV-103S]: the “Potency … MOLT-4” value in the data set with leukemia cells (MOLT-4) was “—”. Besides, the “Potency with respect to paclitaxel, SiHa” value in data set [2] is 1.4. In addition, in the data set with lung cancer cells (L132), the “Potency with respect to paclitaxel, L132” value is recorded as “—”. The “Potency with respect to paclitaxel, PA-1” value in data set [3] is “—”.
With `CC(=O)OC1C(=O)C2(C)C(O)CC3OCC3(OC(C)=O)C2C(OC(=O)c2ccccc2)C2(O)CC(OC(=O)C(OC(=O)c3cccc(F)c3F)C(NC(=O)c3ccccc3)c3ccccc3)C(C)=C1C2(C)C` (stereo not drawn) [AV-105S], in data set [1], the “Potency … HBL100” value is given as 3.8. For the same molecule, the “Potency … MOLT-4” value in the data set on leukemia cells (MOLT-4) was “—”. In data set [2], the “Potency with respect to paclitaxel, SiHa” value worked out at 1.4. In addition, the “Potency with respect to paclitaxel, L132” value in the data set on lung cancer cells (L132) was “—”. In data set [3], the “Potency with respect to paclitaxel, PA-1” value was “—”.
Consider `CC(=O)OC1C(=O)C2(C)C(O)CC3OCC3(OC(C)=O)C2C(OC(=O)c2ccccc2)C2(O)CC(OC(=O)C(OC(=O)C(OC(C)=O)c3ccccc3)C(NC(=O)c3ccccc3)c3ccccc3)C(C)=C1C2(C)C` (stereo not drawn) [AV-125S], for which, in data set [1], the “Potency … HBL100” value is given as “—”. In addition, the “Potency … MOLT-4” value with leukemia cells (MOLT-4) was “—”. For the same molecule, the “Potency with respect to paclitaxel, SiHa” value in data set [2] is listed as “—”. Moreover, the “Potency with respect to paclitaxel, L132” value in the data set with lung cancer cells (L132) is reported as “—”. For the same molecule, the “Potency with respect to paclitaxel, PA-1” value in data set [3] is “=PT”.
Take `CC(=O)OC(C)C(=O)OC1CC2OCC2(OC(C)=O)C2C(OC(=O)c3ccccc3)C3(O)CC(OC(=O)C(OC(=O)OCC(Cl)(Cl)Cl)C(NC(=O)c4ccccc4)c4ccccc4)C(C)=C(C(OC(C)=O)C(=O)C12C)C3(C)C` (stereo not drawn) [AV-126S]: the “Potency … HBL100” value in data set [1] is “—”. For the same molecule, the “Potency … MOLT-4” value with leukemia cells (MOLT-4) was “—”. Also, the “Potency with respect to paclitaxel, SiHa” value in data set [2] is on record as “—”. Also, the “Potency with respect to paclitaxel, L132” value in the data set with lung cancer cells (L132) is reported as “—”. Further, the “Potency with respect to paclitaxel, PA-1” value in data set [3] is given as “=PT”.
Take `CC(=O)CC(=O)OC(C(=O)OC1CC2(O)C(OC(=O)c3ccccc3)C3C4(OC(C)=O)COC4CC(O)C3(C)C(=O)C(OC(C)=O)C(=C1C)C2(C)C)C(NC(=O)c1ccccc1)c1ccccc1` (stereo not drawn) [AV-147A]: the “Potency … HBL100” value in data set [1] is listed as “—”. The “Potency … MOLT-4” value in the data set with leukemia cells (MOLT-4) is “—”. Moreover, in data set [2], the “Potency with respect to paclitaxel, SiHa” value is reported as “—”. Also, the “Potency with respect to paclitaxel, L132” value in the data set with lung cancer cells (L132) was “—”. The “Potency with respect to paclitaxel, PA-1” value in data set [3] was “=PT”.
On to `CC(=O)OC1C(=O)C2(C)C(O)CC3OCC3(OC(C)=O)C2C(OC(=O)c2ccccc2)C2(O)CC(OC(=O)C(OC(=O)CSc3ccccc3)C(NC(=O)c3ccccc3)c3ccccc3)C(C)=C1C2(C)C` (stereo not drawn) [AV-150S], for which the “Potency … HBL100” value in data set [1] is “—”. For the same molecule, the “Potency … MOLT-4” value with leukemia cells (MOLT-4) is “—”. For the same molecule, the “Potency with respect to paclitaxel, SiHa” value in data set [2] was “—”. The “Potency with respect to paclitaxel, L132” value in the data set with lung cancer cells (L132) is listed as “—”. For the same molecule, in data set [3], the “Potency with respect to paclitaxel, PA-1” value is “=PT”.
In the case of `CC(=O)O[C@H]1C(=O)[C@@]2(C)[C@H]([C@H](OC(=O)c3ccccc3)[C@]3(O)C[C@H](OC(=O)[C@H](O)[C@@H](NC(=O)c4ccccc4)c4ccccc4)C(C)=C1C3(C)C)[C@]1(OC(C)=O)CO[C@@H]1C[C@@H]2O` [paclitaxel, Paclitaxel], the toxic dose in the data set with mice (administered in the Cremophor vehicle) is above 30 mg/kg. Also, the “Maximum Tolerated Dose (MTD)” value in the data set with mice (mice, ip administration) is listed as 50 mg/kg.

(Values after US6395771B1, “Paclitaxel derivatives for the treatment of cancer” (Dabur Research Foundation, priority 2000, dated 2002).)
